This is an account of results in ChEMBL document CHEMBL1201862, “PubChem BioAssay data set” (2004).

Active and inactive are the calls of the source. How the calls were made is not given here.

Assay [1] addresses T1, High affinity choline transporter 1 (Homo sapiens, UniProt Q9GZV3).
T1 sequence (Q9GZV3 whole entry): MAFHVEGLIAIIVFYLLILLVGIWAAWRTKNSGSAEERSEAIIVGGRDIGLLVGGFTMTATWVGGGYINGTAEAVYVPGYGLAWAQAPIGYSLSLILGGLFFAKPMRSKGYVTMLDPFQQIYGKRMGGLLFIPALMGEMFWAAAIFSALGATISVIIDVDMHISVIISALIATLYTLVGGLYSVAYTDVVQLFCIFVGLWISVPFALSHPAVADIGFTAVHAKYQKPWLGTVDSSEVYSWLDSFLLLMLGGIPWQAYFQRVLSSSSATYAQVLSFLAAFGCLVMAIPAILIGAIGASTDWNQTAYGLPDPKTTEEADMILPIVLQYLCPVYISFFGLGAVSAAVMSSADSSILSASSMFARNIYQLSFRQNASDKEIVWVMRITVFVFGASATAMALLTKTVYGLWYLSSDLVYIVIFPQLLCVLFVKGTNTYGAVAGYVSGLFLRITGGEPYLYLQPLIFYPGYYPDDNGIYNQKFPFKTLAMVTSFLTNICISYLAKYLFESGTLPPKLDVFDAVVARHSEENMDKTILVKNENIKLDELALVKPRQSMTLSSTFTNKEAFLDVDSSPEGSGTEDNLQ
As to the kind of experiment: CHT inhibitors, dose response, cell-based, 5-point CRC, membrane potential dye (AID 504840). The class given is functional.

Assay [2] addresses T1, High affinity choline transporter 1. As to the kind of experiment: CHT inhibitors, dose response, cell-based, 10-point CRC, membrane potential dye (AID 588401).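 Further: membrane potential dye fluorescence of choline-evoked depolarization via CHT.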 The class given is functional.

As a reminder, the IC50 is the point on the concentration scale where inhibition reaches its midpoint. In the case of `Cc1cc(C)c(C(=O)Nc2ccc(S(=O)(=O)Nc3ccccn3)cc2)c(C)c1`, the half-inhibitory concentration (IC50) in assay [1] is 4.07 µM (active); in assay [2], 2.7 µM (active).
